ChEMBL document CHEMBL1137323, “Discovery of [4-Amino-2-(1-methanesulfonylpiperidin-4-ylamino)pyrimidin-5-yl](2,3-difluoro-6- methoxyphenyl)methanone (R547), a potent and selective cyclin-dependent kinase inhibitor with significant in vivo antitumor activity” (J Med Chem, 2006)

Legend:
[1] = target: Cyclin-dependent kinase 4/cyclin D1 (Homo sapiens, UniProt P11802)
Description: Inhibition of CDK4/Cyclin D1

[2] = target: Cyclin-dependent kinase 1 (Homo sapiens, UniProt P06493)
Description: Inhibition of CDK1/Cyclin B

[3] = target: Cyclin-dependent kinase 2 (Homo sapiens, UniProt P24941)
Description: Inhibition of CDK2/Cyclin E

in vivo [4] = settings: nude, mouse, iv, 10 mg/kg
Description: Clearance in nude mouse at 10 mg/kg, iv

in vivo [5] = settings: nude, mouse, iv, 10 mg/kg; remark: listed apart in the source
Description: Volume of distribution in nude mouse at 10 mg/kg, iv

Chain of Cyclin-dependent kinase 4/cyclin D1 (P11802 whole entry): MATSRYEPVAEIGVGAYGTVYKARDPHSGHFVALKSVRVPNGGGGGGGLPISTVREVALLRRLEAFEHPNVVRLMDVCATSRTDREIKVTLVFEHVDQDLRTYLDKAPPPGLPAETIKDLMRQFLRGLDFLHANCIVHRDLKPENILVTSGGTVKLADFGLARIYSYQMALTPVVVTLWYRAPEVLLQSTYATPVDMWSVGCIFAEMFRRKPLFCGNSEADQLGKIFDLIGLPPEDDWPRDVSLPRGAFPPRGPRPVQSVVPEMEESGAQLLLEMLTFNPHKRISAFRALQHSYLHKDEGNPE
Chain of Cyclin-dependent kinase 4/cyclin D1 (P24385 whole entry, further chain): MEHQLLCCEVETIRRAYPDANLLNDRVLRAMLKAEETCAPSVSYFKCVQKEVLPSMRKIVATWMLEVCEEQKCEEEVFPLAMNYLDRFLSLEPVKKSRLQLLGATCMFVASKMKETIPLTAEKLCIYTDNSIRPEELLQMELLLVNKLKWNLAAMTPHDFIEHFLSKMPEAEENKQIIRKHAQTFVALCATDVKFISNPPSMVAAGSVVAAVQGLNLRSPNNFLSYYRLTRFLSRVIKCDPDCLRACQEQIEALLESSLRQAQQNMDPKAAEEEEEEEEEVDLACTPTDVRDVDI
Chain of Cyclin-dependent kinase 1 (P06493 whole entry): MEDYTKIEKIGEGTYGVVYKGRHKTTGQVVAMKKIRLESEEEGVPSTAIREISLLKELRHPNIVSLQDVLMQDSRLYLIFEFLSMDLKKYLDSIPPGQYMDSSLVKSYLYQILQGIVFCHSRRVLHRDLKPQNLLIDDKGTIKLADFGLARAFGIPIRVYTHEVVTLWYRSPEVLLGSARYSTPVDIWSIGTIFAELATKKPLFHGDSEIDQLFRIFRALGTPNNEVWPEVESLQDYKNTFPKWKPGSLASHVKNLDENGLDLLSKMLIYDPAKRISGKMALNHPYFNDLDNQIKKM

| Ki [1] | Ki [2] | Ki [3] | clearance (in vivo [4]) | Vd (in vivo [5]) | SMILES |
| --- | --- | --- | --- | --- | --- |
| 98 nM | 278 nM | 886 nM |  |  | CCCC(=O)N1CCC(Nc2ncc(C(=O)c3ccccc3OC)c(N)n2)CC1 |
| 665 nM | 1110 nM | 2170 nM |  |  | CCOC(=O)N1CCC(Nc2ncc(C(=O)c3ccccc3C)c(N)n2)CC1 |
| > 1000 nM | 6620 nM | > 10000 nM |  |  | COc1ccccc1C(=O)c1cnc(NC2CCN(C)CC2)nc1N |
| 409 nM | 1530 nM | 1760 nM |  |  | CCNC(=O)N1CCC(Nc2ncc(C(=O)c3ccccc3OC)c(N)n2)CC1 |
| 110 nM | 246 nM | 597 nM |  |  | CCOC(=O)N1CCC(Nc2ncc(C(=O)c3ccccc3OC)c(N)n2)CC1 |
| 734 nM | 1640 nM | 3140 nM |  |  | CCOC(=O)N1CCC(Nc2ncc(C(=O)c3ccccc3F)c(N)n2)CC1 |
| 16 nM | 43 nM | 51 nM |  |  | CCS(=O)(=O)N1CCC(Nc2ncc(C(=O)c3ccccc3OC)c(N)n2)CC1 |
| 66 nM | 181 nM | 327 nM |  |  | COc1ccccc1C(=O)c1cnc(NC2CCN(C(C)=O)CC2)nc1N |
| 481 nM | 5840 nM | 6270 nM |  |  | COc1ccccc1C(=O)c1cnc(NC2CCNCC2)nc1N |
| 21 nM | 193 nM | 84 nM |  |  | COc1cc(F)ccc1C(=O)c1cnc(NC2CCN(S(C)(=O)=O)CC2)nc1N |
| 986 nM | 2500 nM | 2030 nM |  |  | CCOc1ccccc1C(=O)c1cnc(NC2CCN(C(C)=O)CC2)nc1N |

More lines, now with the values behind:

| SMILES | Ki [1] | Ki [2] | Ki [3] | clearance (in vivo [4]) | Vd (in vivo [5]) |
| --- | --- | --- | --- | --- | --- |
| COc1cccc(F)c1C(=O)c1cnc(NC2CCN(S(C)(=O)=O)CC2)nc1N | 3 nM | 17 nM | 13 nM |  |  |
| Cc1ccccc1C(=O)c1cnc(Nc2ccc(N3CCN(C)CC3)cc2)nc1N | 584 nM | > 10000 nM | > 10000 nM |  |  |
| COc1cc(F)c(F)c(F)c1C(=O)c1cnc(NC2CCN(S(C)(=O)=O)CC2)nc1N | 1 nM | 5 nM | 2 nM |  |  |
| CS(=O)(=O)N1CCC(Nc2ncc(C(=O)c3c(F)cccc3F)c(N)n2)CC1 | 17 nM | 38 nM | 15 nM |  |  |
| COc1ccc(F)cc1C(=O)c1cnc(NC2CCN(S(C)(=O)=O)CC2)nc1N | 7 nM | 14 nM | 7 nM | 48.3 mL/min/kg | 0.885 L/kg |
| CN1CCN(c2ccc(Nc3ncc(C(=O)c4cccc(F)c4)c(N)n3)cc2)CC1 | 450 nM | > 10000 nM | > 10000 nM |  |  |
| COc1cccc(C(=O)c2cnc(Nc3ccc(N4CCN(C)CC4)cc3)nc2N)c1 | > 1000 nM | > 10000 nM | > 10000 nM |  |  |
| COc1ccc(Cl)cc1C(=O)c1cnc(NC2CCN(S(C)(=O)=O)CC2)nc1N | 36 nM | 133 nM | 451 nM |  |  |
| CN1CCN(c2ccc(Nc3ncc(C(=O)c4ccccc4C(F)(F)F)c(N)n3)cc2)CC1 | 821 nM | > 10000 nM | > 10000 nM |  |  |
| COc1cc(F)c(F)cc1C(=O)c1cnc(NC2CCN(S(C)(=O)=O)CC2)nc1N | 6 nM | 14 nM | 6 nM |  |  |
| CN1CCN(c2ccc(Nc3ncc(C(=O)c4cccc(C(F)(F)F)c4)c(N)n3)cc2)CC1 | > 1000 nM | > 10000 nM | > 10000 nM |  |  |
| COc1ccccc1C(=O)c1cnc(Nc2ccc(N3CCN(C)CC3)cc2)nc1N | 159 nM | 1260 nM | 5140 nM |  |  |
| COc1c(C(=O)c2cnc(NC3CCN(S(C)(=O)=O)CC3)nc2N)cc(F)c(F)c1F | 267 nM | 1670 nM | 495 nM |  |  |
